# Data reported in patent publication US20230210110A1, “METHOD FOR INDUCING ENVIRONMENTAL STRESS TOLERANCE IN PLANTS” (AJINOMOTO CO., INC., priority 2020, published 2023).
# System: RD29A, RD29B, MAPKKK18, ABF3F and SLAC1 genes
# Assay: Induction of expression of environmental stress tolerance (ABA-responsive) genes, real-time PCR, relative to GAPDH
# Format: in vivo, Arabidopsis thaliana
# Settings: amino acid alone or combination with ABA, 6 hours, n=3
row,Structure (SMILES),activity to induce expression of the environmental stress tolerance gene RD29B
1,"N[C@@H](Cc1c[nH]c2ccccc12)C(=O)O [Trp, tryptophan]",No activity

# System: RD29A, RD29B, MAPKKK18, ABF3F and SLAC1 genes
# Assay: as above
# Format: in vivo, Arabidopsis thaliana
# Settings: RD29B expression; amino acid in combination with ABA
# Experimental: (§1) Four to six young Arabidopsis thaliana plants grown on a 50% concentration MS (Murashige-Skoog) agar medium were transferred to a 6-well plate containing a 50% concentration MS (Murashige-Skoog) liquid medium and pre-cultured for 16 hours, then added with a treatment solution containing each amino acid alone or a treatment solution containing a combination of each amino acid and ABA, and left for 6 hours. Then, RNA was then isolated from the plants with a nucleic acid purification kit (Promega, Maxwell (registered trademark) 16 LEV simplyRNA Tissue Kit). Then, cDNA was synthesized with a cDNA synthesis reagent for real-time PCR (Toyobo, ReverTra Ace (registered trademark) qPCR RT Master Mix).
# MAPKKK18 is a gene encoding a kinase (MAPKKK18, MITOGEN-ACTIVATED PROTEIN KINASE KINASE KINASE 18) that functions in the ABA signaling pathway of Arabidopsis thaliana (Zelicourt A. et al., Trends in Plant Science 21: (2016)). RD29A and RD29B are genes encoding hydrophilic proteins (RESPONSIVE TO DESICCATION 29A, RESPONSIVE TO DESICCATION 29B) that are responsive for ABA and environmental stress such as drought stress and salinity stress and considered to be involved in stress tolerance and senescence suppression (Yang S. D. et al., Plant Cell 6: 2155-2168 (2011)). ABF3 is a gene encoding a transcription factor (ABA-responsive element-binding protein) that regulates expression of ABA-responsive genes (Yoshida T. et al., Plant, cell and Environment 38: 35-49 (2015)). SLAC1 is a gene encoding an anion channel involved in stomatal closure (Yoshida et al., J Plant Res (2016) 129:39-49). GAPDH is a glyceraldehyde-3-phosphate dehydrogenase gene and was selected as an internal standard.
# The expression levels of the genes were calculated as relative expression levels to the GAPDH gene. Twenty amino acids were divided into 10 each, and the gene expression inducing activity when combined with ABA was evaluated in two tests (n=2).
# (§2) The expression levels of the respective genes were calculated as relative expression levels to the GAPDH gene in the same manner as in Example 1.
# Separately, Arabidopsis thaliana was treated with a combination of 0.1 mM, 0.25 mM, 1 mM, 2.5 mM, 10 mM, or 25 mM of Lys and 0.25 μM of ABA in the same manner as in Example 1, and expression of MAPKKK18, RD29A, and RD29B genes after 6 hours of treatment was analyzed (n=3). The expression levels of the respective genes were calculated as relative expression levels to the GAPDH gene in the same manner as in Example 1. […]
# as §2, §2
row,Structure (SMILES),activity of synergistically enhancing the effect of ABA
1,"N[C@@H](Cc1c[nH]c2ccccc12)C(=O)O [Trp, tryptophan]",synergistically enhance the effect of ABA
2,"CC(C)[C@H](N)C(=O)O [Val, valine]",synergistically enhance the effect of ABA

# Same assay, conditions: amino acid alone or combination with ABA, 6 hours, n=3
row,Structure (SMILES),activity to induce expression of the environmental stress tolerance gene RD29B
1,"CC(C)[C@H](N)C(=O)O [Val, valine]",No activity

# System: RD29B and MAPKKK18
# Assay: Effect of Lys derivatives and nitrogen-containing compounds on induction of environmental stress tolerance genes by ABA (activity level)
# Format: in vivo, Arabidopsis thaliana
# Settings: 1 mM compound with 0.25 μM ABA
# Experimental: as §1
# GAPDH is a glyceraldehyde-3-phosphate dehydrogenase gene and was selected as an internal standard.
# Lys or each Lys derivative is used for treatment at 1 mM and ABA at 0.25 μM.
row,Structure (SMILES),effect on the gene expression inducing activity of ABA
1,COC(=O)[C@@H](N)CCCCN [compound 7],no effect
2,N[C@@H](CCCCNC(=O)OCc1ccccc1)C(=O)O [compound 11],no effect
3,CC(C)(C)OC(=O)[C@@H](N)CCCCNC(=O)OCc1ccccc1 [compound 25],no effect
4,CC(C)(C)OC(=O)NCCCC[C@H](N)C(=O)OC(C)(C)C [compound 28],no effect

# Same assay, conditions: total of induction activities of RD29B and MAPKKK18 with 1 mM compound and 0.25 μM ABA, relative to ABA alone taken as 1; >1 enhanced, 1 no effect, <1 suppressed
row,Structure (SMILES),Activity level
1,O=C(NCCCCCNC(=O)c1ccccc1)c1ccccc1 [II-2],> 1
2,O=C(NCCC[C@H](NC(=O)c1ccccc1)C(=O)O)c1ccccc1 [compound 6],>1
3,COC(=O)[C@@H](N)CCCCN [compound 7],1
4,CC(=O)NCCCC[C@H](N)C(=O)O [compound 8],<1
5,N[C@@H](CCCCNC(=O)c1ccccc1)C(=O)O [compound 9],<1
6,N[C@H](CCCCNC(=O)c1ccccc1)C(=O)O [compound 10],<1
7,N[C@@H](CCCCNC(=O)OCc1ccccc1)C(=O)O [compound 11],1
8,CC(C)(C)OC(=O)NCCCC[C@H](N)C(=O)O [compound 12],>1
9,N[C@H](CCCCNC(=O)OCc1ccccc1)C(=O)O [compound 13],<1
10,CN(C)CCCC[C@H](N)C(=O)O [compound 14],>1
11,CC(=O)N[C@@H](CCCCN)C(=O)O [compound 15],<1
12,NCCCC[C@H](NC(=O)/C=C/c1ccccc1)C(=O)O [compound 16],<1
13,NCCCC[C@H](NC(=O)OCc1ccccc1)C(=O)O [compound 17],>1
14,O=C(NCCC[C@H](NC(=O)OCc1ccccc1)C(=O)O)OCc1ccccc1 [compound 18],>1
15,CC(C)(C)OC(=O)NC[C@H](NC(=O)OCc1ccccc1)C(=O)O [compound 19],>1
16,CC(C)(C)OC(=O)NCC[C@H](NC(=O)OCc1ccccc1)C(=O)O [compound 20],>1
17,CCC(C)C(=O)C(=O)N[C@@H](CCCCNC(=N)N)C(=O)O (some centres unmarked) [compound 21],<1
18,COC(=O)[C@H](CCCCN)NC(=O)OCc1ccccc1 [compound 22],>1
19,NCCCC[C@H](NC(=O)OCc1ccccc1)C(=O)OCc1ccccc1 [compound 23],<1
20,COC(=O)[C@@H](N)CCCCNC(=O)OCc1ccccc1 [compound 24],>1
21,CC(C)(C)OC(=O)[C@@H](N)CCCCNC(=O)OCc1ccccc1 [compound 25],1

row,Structure (SMILES),Activity level
1,N[C@@H](CCCCNC(=O)OCc1ccccc1)C(=O)OCc1ccccc1 [compound 26],<1
2,COC(=O)[C@@H](N)CCCCNC(=O)OC(C)(C)C [compound 27],>1
3,CC(C)(C)OC(=O)NCCCC[C@H](N)C(=O)OC(C)(C)C [compound 28],1
4,COC(=O)[C@H](CCCCNC(=O)OC(C)(C)C)NC(=O)OCc1ccccc1 [compound 29],>1
5,O=C(NCCCC[C@H](NC(=O)c1ccccc1)C(=O)O)c1ccccc1 [compound 30],<1
6,CC(C)(C)OC(=O)N[C@@H](CCCCNC(=O)OCc1ccccc1)C(=O)O [compound 31],>1
7,CC(C)(C)OC(=O)NCCCC[C@H](NC(=O)OCc1ccccc1)C(=O)O [compound 32],>1
8,O=C(NCCCC[C@H](NC(=O)OCc1ccccc1)C(=O)O)OCc1ccccc1 [compound 33],>1
9,O=C(NCCCC[C@@H](NC(=O)OCc1ccccc1)C(=O)O)OCc1ccccc1 [compound 34],>1
10,O=C(N[C@@H](CCCCNC(=O)c1ccccc1)C(=O)O)OCc1ccccc1 [compound 35],>1
11,CC(C)(C)OC(=O)N[C@@H](CCCCNC(=O)OCc1cccc(Cl)c1)C(=O)O [compound 36],>1
12,CC(C)(C)OC(=O)NCCCC[C@H](NC(=O)OC(C)(C)C)C(=O)O [compound 37],>1
13,CC(C)(C)OC(=O)N[C@@H](CCCCNC(=O)OC(F)(F)F)C(=O)O [compound 38],>1
14,CC(C)(C)OC(=O)NCCCC[C@H](NC(=O)OCC1c2ccccc2-c2ccccc21)C(=O)O [compound 39],<1
15,CC(C)(C)OC(=O)N[C@@H](CCCCNC(=O)OCC1c2ccccc2-c2ccccc21)C(=O)O [compound 40],>1
16,O=C(NCCCC[C@H](NC(=O)OCc1ccccc1)C(=O)O)OCC1c2ccccc2-c2ccccc21 [compound 41],<1
17,O=C(NCCCC[C@H](NC(=O)OCC1c2ccccc2-c2ccccc21)C(=O)O)OCC1c2ccccc2-c2ccccc21 [compound 42],>1
18,Cc1ccc(C(NCCCC[C@H](NC(=O)OCC2c3ccccc3-c3ccccc32)C(=O)O)(c2ccccc2)c2ccccc2)cc1 [compound 43],>1
19,Cc1cccc(OCC(=O)NCCCC[C@H](NC(=O)COc2cccc(C)c2)C(=O)O)c1 [compound 44],>1
20,O=C(O)[C@H](CCCCN1C(=O)c2ccccc2C1=O)N1C(=O)c2ccccc2C1=O [compound 45],>1
21,Cn1c(=O)n(CCCC[C@H](NC(=O)c2c(Cl)cccc2Cl)C(=O)O)c(=O)c2ccccc21 [compound 46],>1
